# Columns and labels:
# Format in all cases: cell-based, human
# BT474 cells = test: Counts of GFP co-transfected BT474 cells (cell death / viability); conditions: shRNA co-transfected with GFP, counted up to 72 h
# Method: (§1) Results are shown as percentage of control. (**P=0.03). (c) BT474 cells were transfected with luciferase (control), PBP and NR1D1 shRNAs and co-transfected with GFP. Green cells were counted at intervals and expressed as percentage of control. (Error bars are s.d from 3 individual experiments; *P<0.08, **P<0.03, ***P<0.005). (d) BT474 cells were transfected with luciferase (control), PBP or NR shRNAs for 48 h. Immunofluorescence was performed for cleaved Caspase-3 signal; cell nuclei were stained with Hoechst 33243. (e) Cells from […] were counted for cleaved Caspase-3 signal. (Error bars are s.d from 3 individual experiments; ***P<0.0003). (f) BT474 cells were transfected with luciferase (control) PBP, NR1D1 or PBP and NR1D1 shRNAs together and co-transfected with GFP. Transfected cells were counted at 24 h and 72 h and the 72 h-to-24 h ratio for each shRNA was calculated and expressed as % of the control shRNA (luciferase). (Error bars are s.d from 3 individual experiments; **P=0.01, ***P<0.002). (g) Cells from (f) were counted for cleaved Caspase-3 signal. (Error bars are s.d from 3 individual experiments; ***P<0.0001). (h) ERBB2 mRNA levels of BT474 cells transfected with luciferase (control), PBP or NR1D1 shRNAs for 48 h, analyzed by qRT-PCRs. (Error bars are s.d from 3 individual experiments; ***P=0.0001).
# FIG. 4 NR1D1 and PBP coordinate fatty acid metabolism in breast cancer cells. (a) BT474, MDA-MB-361, MCF-7 and HMEC cells were stained with Oil-Red O lipid and hematoxylin nuclear stains. (b) Fat stores were quantified by BODIPY 493/503 lipid probe staining (Error bars are s.d from 3 individual experiments). (c) FASN, ACLY, ACACA and FADS2 mRNA levels of BT474 cells treated with luciferase (control), PBP or NR1D1 shRNAs, or with vehicle and 20 μM of GW9662 for 48 h, analyzed by qRT-PCRs. (Error bars are s.d from 3 experiments; ***P<0.001, **P=0.005) (d) BT474 cells were transfected with FASN, ACLY and ACACA shRNAs and co-transfected with GFP. Transfected cells were counted at 24 h and 72 h and the 72h-to-24 h ratio for each shRNA was calculated and expressed as % of the control shRNA (luciferase). (Error bars are s.d from 3 individual experiments; **P<0.01, ***P<0.002). (e) BODIPY images and (f) quantification of BT474 cells transfected with luciferase (control), PBP or NR1D1 shRNAs and co-transfected with DsRed (Error bars are s.d from 3 individual experiments; ***P<0.03). Arrows indicate transfected cells.
# FIG. 5. (a) MDH1 and ME1 mRNA levels of BT474 cells treated with luciferase (control), PBP or NR1D1 shRNAs for 48 h, analyzed by qRT-PCRs. (Error bars are s.d from 3 experiments; **P<0.002 (b) BT474 and MCF-7 cells were transfected with luciferase (control) MDH1 and ME1 shRNAs (Error bars are s.d from 3 individual experiments; ***P=0.0003). (c) BT474 cells) assayed for cleaved Caspase-3 signal by immunofluorescence 48 h after transfection; cell nuclei were stained with Hoechst 33243. (d) Quantification of cleaved Caspase-3 signal from cells in (c). (Error bars are s.d from 3 individual experiments; ***P<0.005). (e) Enzymes involved in fatty acid synthesis and storage that are regulated by NR1D1 and PBP and their proposed contribution to energy production necessary for survival of ERBB2-positive breast cancer cells.
# Cell viability—apoptosis assays. […] At least 30 fields were imaged per single experiment. […] Immunoblotting. […] PCR reaction was run using standard conditions.
# ERBB2 mRNA = test: qRT-PCR of ERBB2 mRNA in BT474 cells; conditions: shRNA 48 h
# Method: as §1
# Cell viability—apoptosis assays. […]
# [1] = tested on: nonoverexpressing breast cancer cell lines (MCF-7, MDA-MB-453, MDA-MB-468), HMECs, HEK 293FT; test: alamarBlue proliferation of shRNA-transfected ERBB2 non-overexpressing cell lines; conditions: MCF-7, MDA-MB-453, MDA-MB-468, HMEC, shRNA transfection
# Excerpt: FIG. 1 An RNAi screen targeting genes overexpressed in breast cancer. (a) Three transfection mixes were produced for each shRNA and each was transfected into triplicate wells of BT474 cells. AlamarBlue was used to monitor cell proliferation and viability. […] (b) The genetic and functional linkage of NR1D1 and PBP. Mb refers to map position on chromosome 17. (c) ERBB2-overexpressing (OEX) and ERBB2 non-overexpressing (non-OEX) breast cancer cell lines as well as the (non-OEX) HMEC and HEK 293 cells were transfected and assayed as in (a). […] Genes clustered with ERBB2 are boxed.
# To assess the specificity of effect of each shRNA on cell proliferation, those causing the greatest decrease in BT474 cell proliferation were transfected in a variety of cell lines, including ERBB2 overexpressing (BT474, MDA-MB-361) and nonoverexpressing breast cancer cell lines (MCF-7, MDA-MB-453, MDA-MB-468), normal human mammary epithelial cells (HMECs) and a non-breast tumorigenic cell line (HEK 293FT). […] PBP, NRID1 and PFN2 shRNAs clustered with ERBB2.
# RNAi screen, transfections and constructs. The flag-RevErba (flag-NR1D1) overexpression construct was a generous gift of M. Lazar. The LSXN-neu* (ERBB2) overexpression construct was a generous gift of L. Petti. shRNA constructs were expressed from the pSHAG-MAGIC 2 (pSM2) vector and derived from a genome-wide shRNA library^31. ShRNAs targeting the firefly (Photinus pyralis) luciferase gene were used as controls. Transfection efficiency was monitored by co-transfection with a modified MSCV-Puro vector expressing green fluorescent protein (GFP). The alamarBlue (Biosource) assay was performed 96 h post-transfection, since BT474 cells have a population doubling time of ˜100 hours. […] For quantification of alamarBlue we used a BioTek HT Synergy plate reader. AlamarBlue values from the RNAi screens on other cell types were also calculated as above and subjected to hierarchical cluster analysis using Cluster 2.11 (M. Eisen Lab).
Substance,cell death / viability (cell number of transfected cells) (BT474 cells),mRNA levels of ERBB2 (ERBB2 mRNA),effect on other cell lines or HMECs [1]
"NR1D1 shRNA: shRNA, mature sequence GGCATGGTGTTACTGTGTA (shRNA)",time-dependent decrease of cell number,no effect,without effect on other cell lines or HMECs
"PBP shRNA: shRNA, mature sequence CCGAGTTCCTCTTATCCTA (shRNA)",time-dependent decrease of cell number,significantly decreased,without effect on other cell lines or HMECs

# From US20100267803A1, “Regulators Of Fat Metabolism As Anti-Cancer Targets” (The Research Foundation of State University Of New York, priority 2008, published 2010)
